These results are taken from patent US20240277744A1, “TREATMENT OF CHEMORESISTANT CANCER CELLS” (Cornell University, priority 2023, published 2024).

In one assay the test system is SW1990 cells. Description: Cell viability (DAPI nuclei count, high content imaging). It counts as cell-based. The conditions noted are these: Homo sapiens, SW1990, 72 h, read-out: IC50, viability. On the procedure: (§1) Cell viability, colony formation, sphere formation and growth curve. To quantify viability, cells were plated into 96-well plates (6000/well) one night before treatment. […] After fixation, cell nuclei were stained with DAPI (Invitrogen). Plates were analyzed using MetaXpress High Content Image Acquisition and Analysis System (Molecular Devices).

Another assay has as its system HT-29 cells. Nature of the assay: Cell viability with GEM and CYM. In kind it is cell-based. The conditions noted are these: HT-29, 50 nM GEM and 25 nM CYM, 5 days. On the procedure: (§2) Cell viability, colony formation, sphere formation and growth curve. To quantify viability, cells were plated into 96-well plates (6000/well) one night before treatment. Drugs were then added in indicated dose for 5 days. After fixation, cell nuclei were stained with DAPI (Invitrogen). Plates were analyzed using MetaXpress High Content Image Acquisition and Analysis System (Molecular Devices).

A further assay deals with HPAF-II cells. Description: Cell viability with GEM and CYM. In kind it is cell-based. The conditions noted are these: 50 nM GEM and 25 nM CYM, 5 days. As to the method:
as §2

For assay [1], the system named is UGT1A10 overexpressing SW1990 cells. Nature of the assay: Cell viability of UGT1A10 overexpressing cells. It counts as cell-based. The conditions noted are these: 50 nM CYM, control vs UGT1A10 overexpressing SW1990.
Excerpt: To determine whether UTG1A10 is sufficient to induce TRA-1-81 expression and chemoresistance, UGT1A10 was overexpressed ectopically in SW1990 cells (UGT-OE). Cells expressing firefly luciferase were used as control (CTRL). […] Indeed, the viability of UGT-OE cells is higher than control cells following GEM treatment (FIG. 4G). […] In summary, UGT1A10 is both required and sufficient to enhance TRA-1-60 and TRA-1-81 expression and chemoresistance.
LentiLuc-blast and LentiUGT1A10-blast plasmid were generated based on LentiCas9-blast vector (Addgene, 52926). Luciferasec DNA was cloned from pGL3-promoter plasmid (Promega) with PCR amplification and inserted between AgeI and BamHI sites. UGT1A10 cDNA was PCR amplified from plasmid purchased from Dharmacon (MHS6278-202756114) and inserted between XbaI and BamHI sites. Primers were used as below: […]
as §2

The test system of a further assay is SW1990GR cells. Nature of the assay: Cell viability (DAPI nuclei count, high content imaging). It counts as cell-based. The conditions noted are these: 72 h, CYM 0-500 nM, 3 days, read-out: IC50, viability. As to the method: To establish GR cell lines, cells were first cultured with 10 nM GEM till cell growth became stable. […] Once cell growth became stable in 100 nM GEM, cells were expanded in 100 nM GEM and used in assays.
as §1

The next assay relates to hESCs. The conditions noted are these: cited from earlier work.

By IC50 is commonly meant the concentration that inhibits the measured activity by half.

Regarding `CO[C@H]1C[C@H](O[C@H]2CC[C@]3(C=O)[C@H]4CC[C@]5(C)[C@@H](C6=CC(=O)OC6)CC[C@]5(O)[C@@H]4CC[C@]3(O)C2)O[C@H](C)[C@H]1O` [CYM, Cymarin], the IC50 with SW1990 cells is 33.8 ± 2.6 nM; in the assay with SW1990GR cells, 40.8 ± 3.1 nM. Also, the “survival of GEM-resistant cells” value with HT-29 cells and in the assay on HPAF-II cells was “significantly decreased the survival” in each case. Moreover, the “effect of ectopic UGT1A10 expression on Cymarin anti-chemoresistant activity” value in assay [1] is reported as “partially rescues”. The “effect on hESCs in a previous screen” value in the assay with hESCs is given as “differentiation inducer of hESCs”.
